Laboratory results as given in PMC5165251, “Rivaroxaban-Induced Hemorrhage Associated with ABCB1 Genetic Defect” (Frontiers in Pharmacology, 2016).
Entries after “also recorded” stand apart in the source; their conditions may differ. Where two headings read alike, the source gives them in different places.

What was measured:
[1] = parameters: method as in Moore et al., 2014; settings: moderate renal impairment plus erythromycin vs normal renal function, rivaroxaban 10 mg alone; ref Moore et al., 2014; cited from earlier work
[2] = parameters: method as in Mueck et al., 2014; settings: ref Mueck et al., 2014, cited from earlier work
[3] = Case report: laboratory testing at hospital admission under rivaroxaban; type: in vivo, human; settings: 3 months on rivaroxaban 20 mg q.d., normal range 140–180 g/l
[4] = parameters: method as in Grillo et al., 2012; settings: PBPK simulation, concurrent renal impairment plus erythromycin, elderly; ref Grillo et al., 2012; cited from earlier work
[5] = Rivaroxaban plasma concentrations by LC-MS/MS in the patient; type: in vivo, human
Protocol: Rivaroxaban determination was performed using a fully validated LC-MS/MS method according to guidelines of the US Food and Drug Administration and the International Conference on Harmonization. The method was accurate and precise across the dynamic range of 0.5–1000 ng/ml. The LOQ was 0.5 ng/ml. The mean precision and accuracy, calculated from the QCs, were 10.2 and 112%, respectively.
A plasma sample of 40 μl was processed by protein precipitation extraction using acetonitrile (200 μL). Separation was performed on a C18 column (50 mm × 2.1 mm ID; 2.6 μm particle size) and under gradient conditions using formic acid 10 mM in water and formic acid 10 mM in acetonitrile. Detection was by tandem-MS in positive mode using a Qtrap API 6500 from AB sciex (Ontario, Canada) using rivaroxaban-d4 as internal standard (20 ng/ml).

Factor Xa = target: T1, Factor Xa (Homo sapiens, UniProt P00742); experiment: Anti-Xa activity, chromogenic assay (DiXal kit) in patient plasma; type: in vivo; settings: patient on 20 mg q.d.
T1 construct: purchased Hyphen Biomed, Neuville-Sur-Oise, France
Protocol: Anti-Xa activity was measured with a chromogenic assay using the DiXal® kit (Hyphen Biomed, Neuville-Sur-Oise, France) and a BCS XP instrument (Siemens, Marburg, Germany). This method has a limit of detection of 10 ng/ml. No information is given by the manufacturer regarding the limit of quantification (LOQ). However, previous studies have shown a LOQ of 20–30 ng/ml ([Douxfils et al., 2013]). The accuracy and precision calculated from the quality controls (QCs) were 107.0 and 8.8%, respectively, ([Asmis et al., 2012]). An excellent correlation between this method and liquid chromatography-tandem mass spectrometry (LC-MS/MS) has been shown (Spearman correlation coefficient of 0.96) ([Douxfils et al., 2013]).

[6] = parameters: method as in Mueck et al., 2013; settings: healthy volunteers, ref Mueck et al., 2013, cited from earlier work
Mdr1a/Mdr1b/Bcrp = test system: Mdr1a/Mdr1b/Bcrp; parameters: method as in Gong et al., 2013; settings: 4 h after administration; ref Gong et al., 2013; cited from earlier work
P-gp = settings: in vitro; ref Lee et al., 2015; cited from earlier work
CYP3A4/5 [7] = settings: in vitro; ref Lee et al., 2015; cited from earlier work
[8] = parameters: method as in Lee et al., 2015; settings: in vivo; ref Lee et al., 2015; cited from earlier work
CYP3A4/5 [9] = settings: ref Bosilkovska et al., 2014, cited from earlier work
CYP3A4/5 [10] = experiment: CYP3A4/5 phenotyping with midazolam as probe; settings: patient, 8 days after hospital admission, concomitant atorvastatin 40 mg q.d.
Protocol: Midazolam was used as a probe to measure the joint activity of CYP3A4/5 as previously described ([Bosilkovska et al., 2014]). Phenotyping was performed 8 days after hospital admission with concomitant treatment of insulin, enoxaparin 60 mg b.i.d., atorvastatin 40 mg q.d.

[11] = with ketoconazole 200 mg q.d. vs rivaroxaban alone
[12] = with ketoconazole 400 mg q.d. vs rivaroxaban alone

T1 sequence (P00742 235-488 limits assumed): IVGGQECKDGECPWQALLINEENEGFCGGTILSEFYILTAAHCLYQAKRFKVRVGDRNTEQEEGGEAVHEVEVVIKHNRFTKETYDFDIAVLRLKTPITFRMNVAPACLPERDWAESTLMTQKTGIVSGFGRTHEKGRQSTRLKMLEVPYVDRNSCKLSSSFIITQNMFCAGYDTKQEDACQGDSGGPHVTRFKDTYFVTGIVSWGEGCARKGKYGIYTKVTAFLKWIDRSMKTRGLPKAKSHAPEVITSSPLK
T1 sequence (P00742 41-179 partner limits assumed): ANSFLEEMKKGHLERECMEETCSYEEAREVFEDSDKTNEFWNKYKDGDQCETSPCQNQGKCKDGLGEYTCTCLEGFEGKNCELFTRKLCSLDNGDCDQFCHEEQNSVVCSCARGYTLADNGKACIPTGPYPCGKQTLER

O=C(NC[C@H]1CN(c2ccc(N3CCOCC3=O)cc2)C(=O)O1)c1ccc(Cl)s1 [rivaroxaban]
Increase in rivaroxaban AUC [1]: approximately 99%
Increase in rivaroxaban Cmax [1]: ~64%
half-life ([2]; old patients): 11 to 13 h
Oral bioavailability [2]: 80–100%
Part of the dose eliminated as unchanged drug in the urine [2]: more than one third; also recorded: About one third
Hemoglobin level [3]: 70 g/L
Increase in rivaroxaban exposure [4]: 2.5–3 fold
Rivaroxaban plasma concentrations ([5]; 48 h after the last rivaroxaban dose, patient on 20 mg q.d., LC-MS/MS): 88.3 ng/mL
Rivaroxaban plasma concentrations ([5]; 96 h (4 days) after the last rivaroxaban dose, patient on 20 mg q.d., LC-MS/MS): 35.6 ng/mL
half-life ([5]; human, plasma, oral, 20 mg q.d. Patient, homozygous ABCB1 variant carrier, moderate acute renal failure, read-out: Estimated half-life): 24 to 30 h
concentration at 48 h ([5]; human, plasma, oral, 20 mg q.d., 48 h after the last rivaroxaban dose, patient on 20 mg q.d., LC-MS/MS): 88 ng/mL
concentration at 72 h ([5]; human, plasma, oral, 20 mg q.d., 72 h after the last rivaroxaban dose, patient on 20 mg q.d., LC-MS/MS): 70.5 ng/mL
concentration at 96 h ([5]; human, plasma, oral, 20 mg q.d., 96 h (4 days) after the last rivaroxaban dose, patient on 20 mg q.d., LC-MS/MS): 36 ng/mL
Estimated half-life relative to usually reported ([5]; patient vs usually reported half-life): 2–3 times
Anti-Xa activity (Factor Xa; 24 h after the last rivaroxaban dose): 231 ng/mL
Anti-Xa activity (Factor Xa; 48 h after the last rivaroxaban dose): 110 ng/mL
Anti-Xa activity (Factor Xa; 60 h after the last rivaroxaban dose): 81 ng/mL
Anti-Xa activity (Factor Xa; 72 h after the last rivaroxaban dose): 66 ng/mL
Anti-Xa activity (Factor Xa; 84 h after the last rivaroxaban dose): 66 ng/mL
Anti-Xa activity (Factor Xa; 96 h (4 days) after the last rivaroxaban dose): 34 ng/mL
Increase in rivaroxaban AUC [6, 11]: 82%
Increase in rivaroxaban Cmax [6, 11]: 53%
Increase in rivaroxaban AUC [6, 12]: 158%
Increase in rivaroxaban Cmax [6, 12]: 72%
Increase in plasma concentration, triple knockout vs wild type mice (Mdr1a/Mdr1b/Bcrp): 1.7 fold

CC(C)c1c(C(=O)Nc2ccccc2)c(-c2ccccc2)c(-c2ccc(F)cc2)n1CC[C@@H](O)C[C@@H](O)CC(=O)O [atorvastatin]
Inhibition of P-gp activity (P-gp): not P-gp activity
Inhibition of CYP3A4/5 activity (CYP3A4/5 [7]): inhibited
Impact on nifedipine pharmacokinetics [8]: no impact

Cc1ncc2n1-c1ccc(Cl)cc1C(c1ccccc1F)=NC2 [midazolam]
OH-midazolam/midazolam metabolic ratio (CYP3A4/5 [9]; healthy volunteers in the presence of a CYP inhibitor (voriconazole)): 0.22
OH-midazolam/midazolam metabolic ratio (CYP3A4/5 [9]; healthy volunteers without enzyme inhibitor/inducer): 0.50
OH-midazolam/midazolam metabolic ratio (CYP3A4/5 [10]): 0.31
